Consider 3 compounds from paper PMC4767442 (Oncotarget, 2015).

As a reminder, the IC50 is the midpoint of a concentration-inhibition curve.

The nature of data set [1]: Pharmacokinetics and metabolism of Bp4eT in rats (literature). Format: in vivo.
The conditions of data set [2]: cited from earlier work.
Data set [3] concerns cancer cell lines (HL-60, MCF-7 and HCT116). Briefly: MTT assay, cancer cell lines as a group. Conditions: Homo sapiens, HL-60, MCF-7, HCT116, 72 h/37°C, read-out: IC50 against all cancer cell lines. The class given is cell-based. How it is done:
(§1) The MCF-7 human breast adenocarcinoma cell line was purchased from the European Collection of Cell Cultures (U.K.). The HL-60 human promyelocytic leukemia cell line, HCT116 human colorectal carcinoma cell line, H9c2 rat heart-derived myoblast cell line and 3T3 mouse embryo fibroblast line, were obtained from the American Type Culture Collection (VA, U.S.A.). Cells were cultured in Dulbecco's modified Eagle's medium (DMEM, Lonza, Switzerland) with or without (for MCF-7 cells only) phenol red, supplemented with 10% heat-inactivated fetal bovine serum (FBS; Lonza, Switzerland), 1% penicillin/streptomycin solution (Lonza, Switzerland) and 10 mM HEPES buffer (pH 7.0-7.6; Sigma-Aldrich, Germany). The HL-60 cell line was maintained in RPMI medium (Sigma-Aldrich, Germany) supplemented with 10% heat-inactivated FBS and 1% penicillin/streptomycin solution. All cell lines were cultured in 75 cm^2 tissue culture flasks (Switzerland) at 37°C in a humidified atmosphere of 5% CO2. Sub-confluent cells or, in the case of HL-60 cells, a cell suspension, were sub-cultured every 3-4 days.
(§2) Cells were seeded in 96-well plates for 24 h/37°C at a density of 5,000 (MCF-7), 10,000 (HL-60), 2,000 (HCT116) and 10,000 (3T3 and H9c2) cells/well. For 3T3 and H9c2 cells, the medium was changed to serum- and pyruvate-free DMEM 24 h prior to the experiments. Anti-proliferative and cytotoxicity effects of the compounds were studied at different concentrations after incubations for 72 h/37°C. Viabilities of cells were determined using MTT assays (Sigma-Aldrich, Germany) according to the manufacturer's instructions on a Tecan Infinite 200M plate reader (Tecan, Austria). The proliferation/viability of treated groups was expressed as a percentage of the untreated controls (100%).
In general terms: Tetrazolium dyes change colour on reduction, which living cells bring about.

Data set [4] has as its system MCF-7 cells. Briefly: Inhibition of internalized 59Fe uptake from 59Fe-transferrin. Format: cell-based, human. To be noted: MCF-7, compounds 25 μmol·L^−1, 3 h/37°C. The protocol: (§3) Iron chelation efficiency of the compounds at a concentration of 10 μmol·L^−1 was determined via 3 methods: (1) the calcein assay; (2) the ability of the ligands to induce ^59Fe mobilization from cells prelabeled with ^59Fe-transferrin; and (3) the efficacy of these agents to inhibit the uptake of ^59Fe from ^59Fe-transferrin [22, 38–40].
(§4) The fluorimetric calcein-AM assay was performed by established methods, as described previously. The Fe chelation efficiency of the metabolites in cells was expressed as a percentage of that of the parent chelator, Dp44mT or DpC (100%). For studies assessing the ability of these agents to induce ^59Fe mobilization and inhibit ^59Fe uptake from ^59Fe-transferrin by cells, human transferrin (Sigma-Aldrich, Germany) was labeled with ^59Fe (PerkinElmer, MA, USA) to generate ^59Fe-transferrin at a final specific activity of 500 pCi/pmol Fe, as previously described. The unbound ^59Fe was removed by exhaustive vacuum dialysis against a large excess of 0.15 M NaCl buffered to pH 7.4 with 1.4% NaHCO3 by standard methods.
(§5) To examine the ability of the studied substances to mobilize ^59Fe from MCF-7 cells or inhibit ^59Fe uptake from ^59Fe-transferrin, established techniques were utilized. For ^59Fe mobilization studies, cells were preincubated with ^59Fe-transferrin (0.75 μmol·L^−1) for 3 h/37°C, washed 4 times at 4°C on ice, and then reincubated with control medium or control medium containing the compounds (25 μmol·L^−1) for 3 h/37°C. The release of ^59Fe from the cells into the overlying medium was then examined by collecting both the cells and overlying medium and assessing ^59Fe levels using a γ-counter. For studies examining the ability of the agents to inhibit ^59Fe uptake from ^59Fe-transferrin, cells were incubated for 3 h/37°C with ^59Fe-transferrin (0.75 μmol·L^−1) in the presence or absence of the agents (25 μmol·L^−1), and then washed 4 times at 4°C on ice. The internalization of ^59Fe by cells was then assessed by incubation for 30 min/4°C with the general protease, Pronase (1 mg/mL), utilizing standard techniques. The amount of internalized ^59Fe in the presence of the agents was expressed as a percentage of ^59Fe internalized by control cells incubated in the presence of control media alone.

Data set [5] in a line: Post-preparative stability in the autosampler at 10°C. Format: physicochemical. To be noted: for Post-preparative stability: autosampler 10°C, 24 h. The protocol: (§6) The UHPLC-MS/MS methods for quantitative assays were validated with respect to selectivity, linearity, precision, accuracy, stability, recovery, matrix effects and dilution integrity (see […]
Supplementary Table 1-3). […]
(§7) Stability was assessed at low, medium and high concentration levels. Long -term stability was assessed for plasma samples at -80°C over a period of 7 days (three aliquots per level; Supplementary Table 3). […]

The subject of data set [6] is 3T3 mouse embryo fibroblast line. Briefly: MTT proliferation/viability assay, 3T3. Conditions: 72 h/37°C, mean ± S.D., serum- and pyruvate-free DMEM. Format: cell-based. How it is done:
as §1, §2

The nature of data set [7]: Long-term stability in plasma samples at -80°C. Conditions: for Long-term stability: plasma, -80°C, 7 days. The class given is in vitro ADME, rat. The protocol: as §6
Linearity was examined over the concentration ranges described in Supplementary Table 1 using a weighted (1/x 2) linear regression in GraphPad Prism 6 (v. 6.04, GraphPad Software […]
as §7

Data set [8] concerns HCT116 human colorectal carcinoma cell line. Briefly: MTT proliferation/viability assay, HCT116. The class given is cell-based. To be noted: HCT-116, 72 h/37°C, mean ± S.D. The protocol:
as §1, §2

In data set [9] the test system is non-cancer cell lines (H9c2 and 3T3). The experiment in a line: MTT assay, non-cancer cell lines as a group. To be noted: Rattus norvegicus, 72 h/37°C, read-out: IC50 towards non-cancer cells. The class given is cell-based. How it is done:
as §1, with “All cell lines were cultured in 75 cm^2 tissue culture flasks (Switzerland) at 37°C in a humidified atmosphere of 5% CO2. Sub-confluent cells or, in the case of HL-60 cells, a cell suspension, were sub-cultured every 3-4 days.” left out
Cells were seeded in 96-well plates for 24 h/37°C at a density of 5,000 (MCF-7), 10,000 (HL-60), 2,000 (HCT116) and 10,000 (3T3 and H9c2) cells/well. […] Viabilities of cells were determined using MTT assays (Sigma-Aldrich, Germany) according to the manufacturer's instructions on a Tecan Infinite 200M plate reader (Tecan, Austria). The proliferation/viability of treated groups was expressed as a percentage of the untreated controls (100%).

Data set [10] relates to HL-60 human promyelocytic leukemia cell line. The experiment in a line: MTT proliferation/viability assay, HL-60. The class given is cell-based. Conditions: 72 h/37°C, mean ± S.D. How it is done:
as §1, §2

Data set [11] has as its system H9c2 rat heart-derived myoblast cell line. Briefly: MTT proliferation/viability assay, H9c2. To be noted: 72 h/37°C, mean ± S.D., serum- and pyruvate-free DMEM. The class given is cell-based. How it is done:
as §1, §2

The test system of data set [12] is MCF-7 human breast adenocarcinoma cell line. Briefly: MTT proliferation/viability assay, MCF-7. Format: cell-based. To be noted: MCF7, 72 h/37°C, mean ± S.D. How it is done: as §1, §2
Data set [13] relates to MCF-7 cells. Briefly: 59Fe mobilization from cells prelabeled with 59Fe-transferrin. Conditions: MCF-7 prelabeled with 59Fe-transferrin, compounds 25 μmol·L^−1, 3 h/37°C. The class given is cell-based, human. The protocol: as §3, §4, §5
In data set [14] the test system is cellular labile iron pools. Briefly: Fluorimetric calcein-AM assay of intracellular iron chelation. Conditions: 10 μmol·L^−1, parent Dp44mT or DpC. Format: cell-based. How it is done:
as §3, §4

On the set-up of data set [15]: method as in PMID 12203104. Conditions: humans, single i.v. bolus; cited from earlier work.
Setting [16] is: high concentration level (2.105-3.115 µmol·L-1).
Setting [17] is: low concentration level (0.035-0.156 µmol·L-1).
Where [18] appears, read: medium concentration level (0.702-1.558 µmol·L-1).

Each structure is given as a SMILES string.

Regarding `CCNC(=S)NN=C(c1ccccc1)c1ccccn1` [Bp4eT, 2-benzoylpyridine 4-ethyl-3-thiosemicarbazone], the “dose-corrected Cmax, fold higher than Dp44mT and DpC of the present study” value in [1] is approximately 2 fold. Also, the “AUC of the amidrazone metabolite relative to the parent drug” value in [2] (rat, in vivo) was “≈ 20%”. The elimination half-life in data set [2] (rats) is on record as 1.4 h.
`CN(C=NN=C(c1ccccn1)c1ccccn1)C1CCCCC1` [DpC-A, N-cyclohexyl-N′-(di(pyridin-2-yl)methylene)-N-methylformohydrazonamide]: the IC50 is not below 19 µM in data set [3]; 640 ± 65.9 µM in data set [6]; 34.1 ± 6.35 µM in data set [8]; not below 257 µM in [9]; 32.3 ± 3.85 µM in data set [10]; 257 ± 73.6 µM in data set [11]. In [12], this compound came in with an IC50 of 19.5 ± 6.27 µM. Besides, the “inhibition of 59Fe uptake from 59Fe-transferrin (in words)” value in the data set with MCF-7 cells [4] is on record as “loss of Fe chelation efficacy”. Moreover, the “decomposition on storage (in words)” value in data set [5] (24 h storage in the autosampler at 10°C) and in data set [7] (up to 7 days stored at −80°C) was “No significant decomposition” in each case. Further, the Post-preparative stability in data set [5] (setting [16]) is 99.55%; in data set [5] (setting [17]), 101.11%; in [5] (setting [18]), 93.89%. Moreover, the Long-term stability is 104.23% in [7] (setting [16]), 87.83% in data set [7] (setting [17]) and 105.54% in data set [7] (setting [18]). Besides, the “59Fe mobilization (in words)” value in the data set on MCF-7 cells [13] is given as “comparable (p > 0.05) to the control medium”. Besides, in data set [14], the “intracellular Fe chelation efficacy relative to parent chelator (100%)” value is recorded as 2.5%.
For the compound `NC(=S)NN=Cc1ncccc1N` [Triapine®, 3-aminopyridine-2-carboxaldehyde thiosemicarbazone], the half-life of elimination entry in data set [15] was “approximately 1 h”.
